Laboratory results reported in patent US20110077279A1, “ANGIOTENSIN II RECEPTOR ANTAGONISTS” (priority 2008, published 2011).

Tests used:
[1] = system: conscious spontaneously hypertensive rats (SHRs); assay: Assay for antihypertensive activity (in vivo), telemetry; design: species or system rat
Method: The ability of the compounds of the invention to decrease blood pressure was evaluated in conscious spontaneously hypertensive rats (SHRs). SHRs (250-300 g) received a single oral dose of tested compounds. Systolic blood pressure (SBP) and heart rate were monitored by telemetry for 24 hrs after dosing. SBP was evaluated before (baseline) and at different time points (i.e. 2-6, 12, 21-24 hrs) following treatment by oral administration of the compounds. The data were processed both as the absolute value or as a delta between the absolute value and its own baseline.
The Dataquest IV telemetry system (Data Sciences International) was used for measurement of systolic pressure, diastolic pressure, mean arterial pressure, heart rate, and motor activity. The monitoring system consists of a transmitter (radio frequency transducer model TA11PA), receiver panel, consolidation matrix, and personal computer with accompanying software. Before the device was implanted, calibrations were verified to be accurate within ±3 mmHg. Rats were anesthetized with ketamine/xylazine/acepromazine, and the flexible catheter of the transmitter was surgically secured in the abdominal aorta just below the renal arteries. The transmitter was sutured subcutaneously. Rats were housed in individual cages after the operation. Each cage was placed over the receiver panel that was connected to the personal computer for data acquisition. The rats were unrestrained and free to move within their cages. Hemodynamic data were sampled every 2 minutes for 10 seconds.
Compared to Compound A (reference compound), the compounds of the invention provided BP lowering with extended peak effect and duration of action (see Data Table 2).

[2] = system: isolated rabbit thoracic aorta preparations; assay: Assay on vascular tone: vasorelaxation of noradrenaline-precontracted aortic rings; assay type: cell-based; details: Oryctolagus cuniculus; rabbit aortic rings precontracted with noradrenaline 1 μM, functional endothelium; read-out: EC50 in vessel relaxation assay
Method: The ability of the compounds of the invention to induce vasorelaxation in comparison to native angiotensin II receptor blockers (ARBs), was tested in vitro in isolated rabbit thoracic aorta preparations (Wanstall J. C. et al., Br. J. Pharmacol., 134:463-472, 2001). Male New Zealand rabbits were anaesthetized with thiopental-Na (50 mg/kg, iv), sacrificed by exsanguinations and then the thorax was opened and the aorta dissected. Aortic ring preparations (4 mm in length) were set up in physiological salt solution (PSS) at 37° C. in small organ chambers (5 ml). The composition of PSS was (mM): NaCl 130, NaHCO3 14.9, KH2PO4 1.2, MgSO4 1.2, HEPES 10, […] (95% O2/5% CO2; pH 7.4). Each ring was mounted under 2 g passive tension. Isometric tension was recorded with a Grass transducer (Grass FT03) attached to a BIOPAC MP150 System. Preparations were allowed to equilibrate for 1 h, and then contracted submaximally with noradrenaline (NA, 1 μM) and, when the contraction was stable, acetylcholine (ACh, 10 μM) was added. A relaxant response to ACh indicated the presence of a functional endothelium. […] When a stable precontraction was reached, a cumulative concentration-response curve to either of the vasorelaxant agents was obtained in the presence of a functional endothelium. Each arterial ring was exposed to only one combination of inhibitor and vasorelaxant. Moreover, the effect of the soluble guanylyl cyclase inhibitor ODQ (1-H-(1,2,4)-oxadiazol(4,3-a)quinoxalin-1-one) on vasorelaxation elicited by the compounds was examined preincubating the aortic rings with ODQ (10 μM) for 20 min.
Responses to relaxing agents are expressed as a percentage of residual contraction and plotted against concentration of test compound. EC50 values (where EC50 is the concentration producing 50% of the maximum relaxation to the test compound) were interpolated from these plots.
During the experimental period, the plateau obtained with NA was stable without significant spontaneous loss of contraction in the aortic rings. […]

[3] = 2-6 h after single oral dose, 10 mpk
[4] = 21-24 h after single oral dose, 10 mpk
[5] = 12 h after single oral dose, 10 mpk

## CCCCc1nc(Cl)c(C(=O)OCCOCCO[N+](=O)[O-])n1Cc1ccc(-c2ccccc2-c2nn[nH]n2)cc1 [A, reference compound]
[1]; [3]
  Δ SBP in SHR: −15 mmHg
[1]; [4]
  Δ SBP in SHR: −8 mmHg
[1]; [5]
  Δ SBP in SHR: −12 mmHg

## CCCCc1nc(Cl)c(C(=O)OC(C)OC(=O)O[C@@H]2CO[C@H]3[C@@H]2OC[C@H]3OC(=O)CCCC(CO[N+](=O)[O-])O[N+](=O)[O-])n1Cc1ccc(-c2ccccc2-c2nnn[nH]2)cc1 (stereo partly drawn) [Example 1, 1-(((3R,3aR,6R,6aR)-6-(5,6-bis(nitrooxy)hexanoyloxy)hexahydrofuro[3,2-b]furan-3-yloxy)carbonyloxy)ethyl 1-((2′-(1H-tetrazol-5-yl)biphenyl-4-yl)methyl)-2-butyl-4-chloro-1H-imidazole-5-carboxylate]
[1]; [3]
  Δ SBP in SHR: −19 mmHg
[1]; [4]
  Δ SBP in SHR: −11 mmHg
[1]; [5]
  Δ SBP in SHR: −14 mmHg
[2]
  EC50: 6200 nM

## CCOc1nc2cccc(C(=O)OC(C)(C)OC(=O)O[C@@H]3CO[C@H]4[C@@H]3OC[C@H]4OC(=O)CCCC(CO[N+](=O)[O-])O[N+](=O)[O-])c2n1Cc1ccc(-c2ccccc2-c2nnn[nH]2)cc1 (stereo partly drawn) [Example 2, 2-(((3R,3aR,6R,6aR)-6-(5,6-bis(nitrooxy)hexanoyloxy)hexahydrofuro[3,2-b]furan-3-yloxy)carbonyloxy)propan-2-yl 1-((2′-(1H-tetrazol-5-yl)biphenyl-4-yl)methyl)-2-ethoxy-1H-benzo[d]imidazole-7-carboxylate]
[1]; 2-6 h after single oral dose, 3 mpk
  Δ SBP in SHR: −37 mmHg
[1]; 21-24 h after single oral dose, 3 mpk
  Δ SBP in SHR: −33 mmHg
[1]; 12 h after single oral dose, 3 mpk
  Δ SBP in SHR: −34 mmHg
[2]
  EC50: 270 nM

## CCOc1nc2cccc(C(=O)OC(C)(C)OC(=O)O[C@@H]3CO[C@H]4[C@@H]3OC[C@H]4OC(=O)OCCC(C)(C)CC(CO[N+](=O)[O-])O[N+](=O)[O-])c2n1Cc1ccc(-c2ccccc2-c2nn[nH]n2)cc1 (stereo partly drawn) [Example 3, 2-(((3R,3aR,6R,6aR)-6-((3,3-dimethyl-5,6-bis(nitrooxy)hexyloxy)carbonyloxy)hexahydrofuro[3,2-b]furan-3-yloxy)carbonyloxy)propan-2-yl 1-((2′-(2H-tetrazol-5-yl)biphenyl-4-yl)methyl)-2-ethoxy-1H-benzo[d]imidazole-7-carboxylate]
[2]
  EC50: 180 nM
